According to ChEMBL document CHEMBL1201862, “PubChem BioAssay data set” (2004):
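Five concentrations, 48 hours, 96-well plates. GI50 marks 50% less growth.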 Calls of active or inactive are those of the source. No stated cut-off is given here; in the data, active = GI50 up to about 1.1 µM and inactive = higher.

Legend:
Assay in all cases: DTP human tumour cell line panel, 48 h
OVCAR-8 = system: OVCAR-8
Hs-578T = system: Hs-578T
K562 = system: K562
HOP-62 = system: HOP-62
SR = system: SR
UACC-62 = system: UACC-62
NCI-H23 = system: NCI-H23
Malme-3M = system: Malme-3M
RPMI-8226 = system: RPMI-8226
DU-145 = system: DU-145
TK-10 = system: TK-10
KM12 = system: KM12
HL-60 = system: HL-60
SF-539 = system: SF-539
HCC 2998 = system: HCC 2998
NCI-H226 = system: NCI-H226
MOLT-4 = system: MOLT-4
MDA-MB-435 = system: MDA-MB-435
CCRF-CEM = system: CCRF-CEM
SF-268 = system: SF-268

Compound	GI50 (OVCAR-8)	GI50 (Hs-578T)	GI50 (K562)	GI50 (HOP-62)	GI50 (SR)	GI50 (UACC-62)	GI50 (NCI-H23)	GI50 (Malme-3M)	GI50 (RPMI-8226)	GI50 (DU-145)	GI50 (TK-10)	GI50 (KM12)	GI50 (HL-60)	GI50 (SF-539)	GI50 (HCC 2998)	GI50 (NCI-H226)	GI50 (MOLT-4)	GI50 (MDA-MB-435)	GI50 (CCRF-CEM)	GI50 (SF-268)
O=C(O)Cc1ccc(Oc2nc3ccccc3nc2-c2ccccc2)cc1	> 100 µM (inactive)	41.7 µM (inactive)	97.9 µM (inactive)	> 100 µM (inactive)	4.22 µM (inactive)	24.9 µM (inactive)	63.8 µM (inactive)	65.8 µM (inactive)	66.8 µM (inactive)	69.7 µM (inactive)	97.9 µM (inactive)	60.5 µM (inactive)	67.8 µM (inactive)	60.5 µM (inactive)	49.5 µM (inactive)	30.5 µM (inactive)	86.9 µM (inactive)	86.1 µM (inactive)	61.4 µM (inactive)	44.5 µM (inactive)
CCOC(=O)N1N(c2ccccc2)C(=O)C1(c1ccccc1)c1ccccc1	> 100 µM (inactive)	> 100 µM (inactive)	34.8 µM (inactive)	14.9 µM (inactive)	87.5 µM (inactive)	> 100 µM (inactive)	> 100 µM (inactive)	97.7 µM (inactive)	14.7 µM (inactive)	> 100 µM (inactive)	> 100 µM (inactive)	73.5 µM (inactive)	8.3 µM (inactive)	> 100 µM (inactive)	> 100 µM (inactive)	99.1 µM (inactive)	20.1 µM (inactive)	> 100 µM (inactive)	66.5 µM (inactive)	> 100 µM (inactive)
CCN(CC)CCC(=O)N1C/C(=C/c2ccccc2)C(=O)/C(=C\c2ccccc2)C1	1.35 µM (inactive)	< 0.01 µM (active)	0.141 µM (active)	13.2 µM (inactive)	0.344 µM (active)	2.03 µM (inactive)	1.42 µM (inactive)	2.58 µM (inactive)	0.114 µM (active)	3.15 µM (inactive)	6.58 µM (inactive)	0.541 µM (active)	0.383 µM (active)	3.83 µM (inactive)	0.706 µM (active)	5.32 µM (inactive)	0.28 µM (active)	1.7 µM (inactive)	0.219 µM (active)	2.04 µM (inactive)
O=c1nc(N2CCNCC2)oc2cc(Cl)oc(=O)c12	2 µM (inactive)	1.94 µM (inactive)	2.55 µM (inactive)	4.69 µM (inactive)	1.65 µM (inactive)	7.67 µM (inactive)	7.24 µM (inactive)	3.93 µM (inactive)	1.67 µM (inactive)	5.5 µM (inactive)	9.02 µM (inactive)	5.96 µM (inactive)	1.9 µM (inactive)	2.25 µM (inactive)	11.1 µM (inactive)	15.4 µM (inactive)	1.76 µM (inactive)	4.44 µM (inactive)	1.83 µM (inactive)	3.89 µM (inactive)
CN1C(=O)N(c2ccccc2)C2(CCN(CC3COc4ccccc4O3)CC2)C1=O (stereo not given)	> 100 µM (inactive)	> 100 µM (inactive)	99.3 µM (inactive)	> 100 µM (inactive)	> 100 µM (inactive)	> 100 µM (inactive)	94.4 µM (inactive)	> 100 µM (inactive)	99.1 µM (inactive)	> 100 µM (inactive)	> 100 µM (inactive)	> 100 µM (inactive)	39.2 µM (inactive)	> 100 µM (inactive)	> 100 µM (inactive)	59.2 µM (inactive)	65.9 µM (inactive)	> 100 µM (inactive)	> 100 µM (inactive)	> 100 µM (inactive)
COc1cc2c(c(OC)c1OC)C(=O)[C@H](Br)[C@H]2NC(=O)NCCCl	> 100 µM (inactive)	> 100 µM (inactive)	58.2 µM (inactive)	> 100 µM (inactive)	76.2 µM (inactive)	73.3 µM (inactive)	> 100 µM (inactive)	> 100 µM (inactive)	> 100 µM (inactive)	> 100 µM (inactive)	> 100 µM (inactive)	72.8 µM (inactive)	75.5 µM (inactive)	> 100 µM (inactive)	> 100 µM (inactive)	88.5 µM (inactive)	46.7 µM (inactive)	40.5 µM (inactive)	23.6 µM (inactive)	49.9 µM (inactive)
